Measurements reported in patent publication US9777045B2, “Immunogenic compositions and methods” (Longhorn Vaccines and Diagnostics, LLC, priority 2007, dated 2017).
“And” between values parts separate entries of the source, which are not always exact repeats. Identical values can stand only once.

B1: GNLFIAPGNLFIAPHYEECSCYHYEECSCYQYIKANSKFIGITEHYEECSCYTPIRNETPIRNE (peptide)
chain: GNLFIAPGNLFIAPHYEECSCYHYEECSCYQYIKANSKFIGITEHYEECSCYTPIRNETPIRNE

Key:
[1] = tested on: peptide corresponding to the peptide-BSA conjugate used for injection; test: ELISA for anti-peptide antibodies (individual mouse sera 1:100); format: in vivo, mice; settings: for Average Absorbance Values of sera for tested peptides, Day 14 / Average Absorbance Values of sera for tested peptides, Day 29 / Average Absorbance Values of sera for tested peptides, Day 42 / Average Absorbance Values of sera for tested peptides, Pre: group average; for Average Absorbance Values of sera for tested peptides, Day 14 / Average Absorbance Values of sera for tested peptides, Day 29 / Average Absorbance Values of sera for tested peptides, Day 42 / Average Absorbance Values of sera for tested peptides, Pre / Individual absorbancy values of sera for tested peptides, Day 14 / Individual absorbancy values of sera for tested peptides, Day 29 / Individual absorbancy values of sera for tested peptides, Day 42: mice; for Average Absorbance Values of sera for tested peptides, Pre / Individual absorbancy values of sera for tested peptides, Pre: pre-bleed; for Individual absorbancy values of sera for tested peptides, Pre: mice injected with peptide-BSA conjugate, absorbance 450 nm; for Individual absorbancy values of sera for tested peptides, Pre / Individual absorbancy values of sera for tested peptides, Day 14 / Individual absorbancy values of sera for tested peptides, Day 29 / Individual absorbancy values of sera for tested peptides, Day 42: sera 1:100
Protocol: Individual sera were tested at a final dilution of 1:100 (in PBS-T) on Nunc Maxisorp® plates coated with the peptide corresponding to the peptide-BSA conjugate used for injection, at a concentration of 1 μg/ml in PBS (100 μl/well). One hundred microliters of diluted sera were reacted on the coated plate for 30 to 60 min at room temperature, and unbound material was removed by washing three times with PBS-T. Anti-peptide antibodies were detected with peroxidase-labeled goat anti-mouse IgG (γ-specific), diluted 1:10000 in PBS-T (100 μl/well; Jackson ImmunoResearch Laboratories, Inc., West Grove, Pa., USA). Following 30-min incubation, the wells were washed five times with PBS-T to removed unbound material and 100 μl of substrate (TMB; Kirkegaard & Perry Laboratories, Inc., Gaithersburg, Md., USA) was added to each well. The reaction was allowed to proceed for 15 min in the dark and stopped by addition of 100 μl of TMB Stop Solution per well (Kirkegaard & Perry). Absorbance was determined at 450 nm.

[2] = tested on: live Wuhan (Influenza A/Wuhan/359/95, H3N2); test: ELISA for anti-Wuhan antibodies (mouse sera 1:100); format: in vivo, mice; settings: sera 1:100; for Absorbance values for individual sera tested on influenzavirus strain Wuhan, Pre: pre-bleed; for Anti-Wuhan Absorbance Day 42 (group average) / Anti-Wuhan Absorbance Pre-Bleed (group average): averaged results
[3] = tested on: IFN-γ induction in splenocytes; format: cell-based; settings: mice immunized with peptide-BSA conjugates; 72 h in vitro treatment
live H3N2 virus = format: in vivo, cotton rats (Sigmodon hispidus); settings: cotton rats; 100 μg IM on day 0 and day 28, in CFA or in PBS; sera day 0, 28, 42
[4] = tested on: Influenza H1N1, H3N2, and H5N1; settings: in vivo
[5] = 5 μg per injection, listed as 1911

Molecule	Average Absorbance Values of sera for tested peptides, Day 14 ([1]; 5 μg per injection)	Average Absorbance Values of sera for tested peptides, Day 29 ([1]; 5 μg per injection)	Average Absorbance Values of sera for tested peptides, Day 42 ([1]; 5 μg per injection)	Average Absorbance Values of sera for tested peptides, Pre ([1]; 5 μg per injection)	Average Absorbance Values of sera for tested peptides, Day 14 ([1]; 20 μg per injection)	Average Absorbance Values of sera for tested peptides, Day 29 ([1]; 20 μg per injection)	Average Absorbance Values of sera for tested peptides, Day 42 ([1]; 20 μg per injection)	Average Absorbance Values of sera for tested peptides, Pre ([1]; 20 μg per injection)	Individual absorbancy values of sera for tested peptides, Pre ([1]; 5 μg per injection)	Individual absorbancy values of sera for tested peptides, Pre ([1]; 20 μg per injection)	Individual absorbancy values of sera for tested peptides, Day 14 ([1]; 5 μg per injection)	Individual absorbancy values of sera for tested peptides, Day 29 ([1]; 5 μg per injection)	Individual absorbancy values of sera for tested peptides, Day 42 ([1]; 5 μg per injection)	Individual absorbancy values of sera for tested peptides, Day 14 ([1]; 20 μg per injection)	Individual absorbancy values of sera for tested peptides, Day 29 ([1]; 20 μg per injection)	Individual absorbancy values of sera for tested peptides, Day 42 ([1]; 20 μg per injection)	Absorbance values for individual sera tested on influenzavirus strain Wuhan, Pre ([2]; mice, 5 μg per injection)	Absorbance values for individual sera tested on influenzavirus strain Wuhan, Pre ([2]; mice, 20 μg per injection)	Anti-Wuhan Absorbance Day 42 (individual mice) ([2]; dose per inject 5 μg)	Anti-Wuhan Absorbance Pre-Bleed (individual mice) ([2]; dose per inject 5 μg)	other results
HYEECSCY [Peptide 5911]	0.264	0.213	0.347	0.156	0.171	0.229	0.342	0.132	0.126 and 0.187 and 0.137	0.099 and 0.109 and 0.151 and 0.121	0.184 and 0.503 and 0.154	0.201 and 0.303 and 0.188	0.392 and 0.497 and 0.300	0.102 and 0.136 and 0.106 and 0.123	0.145 and 0.240 and 0.152 and 0.170	0.180 and 0.304 and 0.218 and 0.158	0.060 and 0.073 and 0.063 and 0.067	0.065 and 0.069 and 0.084 and 0.070	0.154 and 0.174 and 0.136 and 0.165	0.067 and 0.060 and 0.073 and 0.063	Individual absorbancy values of sera for tested peptides, Pre [1, 5]: 0.174; Individual absorbancy values of sera for tested peptides, Day 14 [1, 5]: 0.216; Individual absorbancy values of sera for tested peptides, Day 29 [1, 5]: 0.161; Individual absorbancy values of sera for tested peptides, Day 42 [1, 5]: 0.199; Anti-Wuhan Absorbance Day 42 (individual mice) ([2]; dose per inject 20 μg): 0.747 and 0.194 and 0.154 and 0.134; Anti-Wuhan Absorbance Pre-Bleed (individual mice) ([2]; dose per inject 20 μg): 0.065 and 0.069 and 0.084 and 0.070; Anti-Wuhan Absorbance Day 42 (group average) ([2]; dose per injection 5 μg): 0.157; Anti-Wuhan Absorbance Pre-Bleed (group average) ([2]; dose per injection 5 μg): 0.065; Anti-Wuhan Absorbance Day 42 (group average) ([2]; dose per injection 20 μg): 0.307; Anti-Wuhan Absorbance Pre-Bleed (group average) ([2]; dose per injection 20 μg): 0.072; IFN-γ response of spleen cell supernatants (in words) [3]: Weaker responses
MSLLTEVETPIRNEWGCRCNDSSD [Peptide M2e, reference compound]																					IgG titers to live H3N2 virus (ELISA) (live H3N2 virus): no particular advantage over small epitopic peptide fragments
HYEECSCYDWSGYSGSFVQHPELTGLHYEECSCYQYIKANSKFIGITE [Peptide 5908]																					immune response against Influenza H1N1, H3N2, and H5N1 [4]: raised an immune response
KSCINRCFYVELIRGR [Peptide 5914]	0.128	0.181	0.284	0.126	0.174	0.171	0.411	0.146	0.110 and 0.133 and 0.136 and 0.126	0.165 (2×) and 0.133 and 0.123	0.117 and 0.123 and 0.156 and 0.118	0.248 and 0.136 and 0.219 and 0.121	0.388 and 0.264 and 0.357 and 0.127	0.213 and 0.150 and 0.153 and 0.180	0.175 and 0.214 and 0.141 and 0.156	0.284 and 0.480 and 0.646 and 0.234	0.062 and 0.059 and 0.090 and 0.083	0.099 and 0.132 and 0.068 and 0.080	0.176 and 0.329 and 0.239 and 0.096	0.062 and 0.059 and 0.090 and 0.083	Absorbance values for individual sera tested on influenzavirus strain Wuhan, Day 42 ([2]; mice, 5 μg per injection, day 42): 0.172; Anti-Wuhan Absorbance Day 42 (individual mice) ([2]; dose per inject 20 μg): 0.156 and 0.408 and 0.296 and 0.182; Anti-Wuhan Absorbance Pre-Bleed (individual mice) ([2]; dose per inject 20 μg): 0.099 and 0.132 and 0.068 and 0.080; Anti-Wuhan Absorbance Day 42 (group average) ([2]; dose per injection 5 μg): 0.210; Anti-Wuhan Absorbance Pre-Bleed (group average) ([2]; dose per injection 5 μg): 0.073; Anti-Wuhan Absorbance Day 42 (group average) ([2]; dose per injection 20 μg): 0.260; Anti-Wuhan Absorbance Pre-Bleed (group average) ([2]; dose per injection 20 μg): 0.094
DWSGYSGSFVQHPELTGL [Peptide 5912]	0.162	0.325	0.693	0.130	0.130	0.123	0.155	0.100	0.090 and 0.094 and 0.107 and 0.156	0.100 and 0.098 and 0.090 and 0.123	0.287 and 0.109 and 0.230 and 0.147	0.175 and 0.137 and 0.700 and 0.138	0.154 (2×) and 0.167 and 1.758	0.091 and 0.082 and 0.103 and 0.088	0.098 and 0.146 and 0.099 and 0.096	0.155 and 0.189 and 0.168 and 0.111	0.063 and 0.060 and 0.062 and 0.083	0.077 and 0.084 and 0.057 and 0.086	0.086 and 0.100 and 0.527 and 0.090	0.063 and 0.060 and 0.062 and 0.083	Anti-Wuhan Absorbance Day 42 (individual mice) ([2]; dose per inject 20 μg): 0.132 and 0.431 and 0.093 and 0.068; Anti-Wuhan Absorbance Pre-Bleed (individual mice) ([2]; dose per inject 20 μg): 0.077 and 0.084 and 0.057 and 0.086; Anti-Wuhan Absorbance Day 42 (group average) ([2]; dose per injection 5 μg): 0.201; Anti-Wuhan Absorbance Pre-Bleed (group average) ([2]; dose per injection 5 μg): 0.067; Anti-Wuhan Absorbance Day 42 (group average) ([2]; dose per injection 20 μg): 0.181; Anti-Wuhan Absorbance Pre-Bleed (group average) ([2]; dose per injection 20 μg): 0.076
B1																					immune response against Influenza H1N1, H3N2, and H5N1 [4]: raised an immune response
